Source: ChEMBL document CHEMBL3351388, “Identification of two novel RET kinase inhibitors through MCR-based drug discovery: design, synthesis and evaluation” (Eur J Med Chem, 2014)
pIC50: −log10 of the molar value.

Target: Proto-oncogene tyrosine-protein kinase receptor Ret (Homo sapiens, UniProt P07949)
Test: Inhibition of RET (unknown origin) pre-incubated for 60 mins before substrate addition in presence of 9 uM ATP by microfluidic assay

Chain of Proto-oncogene tyrosine-protein kinase receptor Ret (P07949 whole entry): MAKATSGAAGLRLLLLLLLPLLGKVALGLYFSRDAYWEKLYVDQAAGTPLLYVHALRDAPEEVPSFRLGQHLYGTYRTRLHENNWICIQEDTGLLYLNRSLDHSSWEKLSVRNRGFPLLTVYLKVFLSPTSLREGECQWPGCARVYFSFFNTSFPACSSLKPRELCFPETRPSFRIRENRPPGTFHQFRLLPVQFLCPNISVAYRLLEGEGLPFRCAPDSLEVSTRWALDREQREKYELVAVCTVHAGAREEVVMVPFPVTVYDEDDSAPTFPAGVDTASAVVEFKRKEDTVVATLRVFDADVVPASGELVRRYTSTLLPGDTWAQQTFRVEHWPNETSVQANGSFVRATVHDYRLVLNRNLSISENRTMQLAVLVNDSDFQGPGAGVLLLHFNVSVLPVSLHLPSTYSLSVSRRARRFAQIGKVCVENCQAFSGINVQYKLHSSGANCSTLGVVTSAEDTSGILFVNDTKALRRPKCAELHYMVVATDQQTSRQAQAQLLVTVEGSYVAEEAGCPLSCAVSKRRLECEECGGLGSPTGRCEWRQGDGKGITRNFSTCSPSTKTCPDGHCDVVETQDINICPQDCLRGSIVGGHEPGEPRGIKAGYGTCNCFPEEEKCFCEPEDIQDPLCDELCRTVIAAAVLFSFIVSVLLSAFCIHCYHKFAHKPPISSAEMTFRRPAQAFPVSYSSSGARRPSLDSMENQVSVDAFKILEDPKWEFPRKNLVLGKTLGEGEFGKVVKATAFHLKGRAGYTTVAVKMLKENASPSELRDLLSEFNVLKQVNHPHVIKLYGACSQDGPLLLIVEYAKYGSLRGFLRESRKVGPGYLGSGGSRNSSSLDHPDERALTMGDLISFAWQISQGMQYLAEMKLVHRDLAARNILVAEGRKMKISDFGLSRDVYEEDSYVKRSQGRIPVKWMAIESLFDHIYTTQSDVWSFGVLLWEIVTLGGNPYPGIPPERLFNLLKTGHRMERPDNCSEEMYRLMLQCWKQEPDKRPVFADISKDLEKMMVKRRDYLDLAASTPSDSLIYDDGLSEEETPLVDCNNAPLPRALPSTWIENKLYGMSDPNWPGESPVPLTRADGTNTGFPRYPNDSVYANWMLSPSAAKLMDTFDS

| pIC50 | Compound |
| --- | --- |
| < 4.00 | O=C(Cc1ccc(-c2ccc3nccn3c2)cc1)Nc1cccc(Br)c1 |
| < 4.00 | O=C(Cc1ccc(-c2ccc3nccn3c2)cc1)Nc1cccc(F)c1 |
| < 4.00 | Cc1cccc(NC(=O)Cc2ccc(-c3ccc4nccn4c3)cc2)c1 |
